The values that follow are results of earlier work, collected in patent US20090092657A1, “Amino acid combinant omega oil aphrodisiac” (priority 2007, published 2009).

SMILES strings stand for the structures.

The conditions of series [1]: for erection after injection: injected directly into the corpus cavernosum using a hypodermic needle; for duration of erection: intracavernosal injection, appropriate dose.
For series [2] the following is noted: 1989 outbreak traced to L-tryptophan supplied by Showa Denko KK.
The conditions of series [3]: buccal administration of 100 I.U. three times a day for 14 days.

As for `CCN(CC)CCOC(=O)C(Cc1cccc2ccccc12)CC1CCCO1` (mixture of isomers) [naftidrofuryl], the erection after injection result in series [1] was “caused erection”. Consider `N[C@@H](Cc1c[nH]c2ccccc12)C(=O)O` [L-tryptophan], for which, in series [2], the “cases of eosinophilia-myalgia syndrome (EMS) in the outbreak” value is on record as 1500 cases and the “deaths in the EMS outbreak” value is given as “at least 37 deaths”.

Consider `CN(C)CCCN1c2ccccc2CCc2ccccc21` [imipramine], for which the erection after injection entry in series [1] was “caused erection”. As to `CC[C@H](C)[C@@H]1NC(=O)[C@H](Cc2ccc(O)cc2)NC(=O)[C@@H](N)CSSC[C@@H](C(=O)N2CCC[C@H]2C(=O)N[C@@H](CC(C)C)C(=O)NCC(N)=O)NC(=O)[C@H](CC(N)=O)NC(=O)[C@H](CCC(N)=O)NC1=O` [oxytocin], the “improvement of impotentia erectionis, patients improved of patients treated” value in series [3] is 12 of the 16. As for `COc1ccc(Cc2nccc3cc(OC)c(OC)cc23)cc1OC` [papaverine], in series [1], the erection after injection result is reported as “caused erection” and the duration of erection entry is recorded as “unrelenting erection lasting for hours”.

Take `CC(COc1ccccc1)N(CCCl)Cc1ccccc1` (centres unmarked) [phenoxybenzamine]: in series [1], the erection after injection entry is “caused erection” and the duration of erection result is reported as “unrelenting erection lasting for hours”. As to `Cc1ccc(N(CC2=NCCN2)c2cccc(O)c2)cc1` [phentolamine], in series [1], the erection after injection entry was “caused erection”. For the molecule `CC(=O)Oc1cc(C(C)C)c(OCCN(C)C)cc1C` [thymoxamine], the erection after injection result in series [1] is on record as “caused erection”.
